Measurements taken from patent publication US11179348B2, “Combination comprising pterostilbene for the treatment of cancer” (FUNDACIÓN UNIVERSIDAD CATÓLICA DE VALENCIA SAN VICENTE …, priority 2015, dated 2021).
Marks after values point to notes of the source that are not given here.

Tests used:
[1] = system: MeWo melanoma; assay: In vivo growth of MeWo melanoma xenografts in nu/nu mice; set-up: species or system human
[2] = system: HepG2 hepatocellular carcinoma; assay: In vivo growth of HepG2 liver cancer xenografts; set-up: species or system human; settings: HepG2, day 35
[3] = system: MDA-MB-231 breast adenocarcinoma; assay: In vivo growth of MDA-MB-231 breast cancer xenografts; set-up: species or system human; settings: MDA-MB-231, day 35
[4] = system: LNCaP cells; assay: GSH levels and glutathione- and oxidative stress-related enzyme activities in LNCaP cells growing in vivo; set-up: species or system human; settings: in vivo Pter, day 49
Procedure: To measure enzyme activity, isolated tumor cells were homogenized in 0.1 M phosphate buffer (pH 7.2) at 4° C. GCL and GSS activities were measured as described previously (Obrador, E. et al. Hepatology 35, 74-81 (2002)). GPX (selenium dependent) activity was measured as described by Flohé and Gunzler (Flohe, L. & Gunzler, W. A. Methods Enzymol 105, 114-121 (1984)) using H2O2 as a substrate. GSR activity was determined as described by Akerboom and Sies (Akerboom, T. P. et al, Bull Eur Physiopathol Respir 17 Suppl, 221-227 (1981)). GGT activity was measured as described previously (Obrador, E. et al. Hepatology 35, 74-81 (2002)). GST activity was measured using an assay kit from Sigma. TXNRD activity, defined by the concentration of sodium-lipoate (disulfide) reduced to dehydrolipoate (dithiol) per milligram protein, was measured as previously described (Javvadi, P. et al. Cancer Res 70, 1941-1950 (2010)). SOD activity was measured as described by Flohé and Otting (Flohe, L. & Otting, F. Methods Enzymol 105, 93-104 (1984).) using 2 mM cyanide in the assay medium to distinguish mangano-type enzyme (SOD2) from the cuprozinc type (SOD1). CAT activity was analyzed as described by Aebi (Aebi, H. Methods Enzymol 105, 121-126 (1984)). NOX activity was measured by chemiluminescence following the methodology of Wind et al. (Wind, S. et al. Comparative pharmacology of chemically distinct NADPH oxidase inhibitors. Br J Pharmacol 161, 885-898 (2010)). Protein concentration was determined with the Pierce BCA protein assay (Fisher Scientific, Waltham, Mass.).
GSH, GSSG, NADP^+ and NADPH Determination.
GSH and GSSG were determined, following procedures previously described (Obrador, E. et al. PLoS One 9, e96466 (2014)), by LC/MS using the same equipment described above for pterostilbene determination. Cell processing was performed according to published methodology, where rapid N-ethylmaleimide derivatization was used to prevent GSH auto-oxidation (Asensi, M. et al. Anal Biochem 217, 323-328 (1994)). NADP^+ and NADPH were quantitated using an assay kit from Sigma (St. Louis, Mo.).
Isolation of Tumor Cells from Mouse Xenografts Using Enzymatic Digestion and a double Ficoll gradient.
To maximize the amount of isolated cells, avoiding the use of RFP-transfected cells and subsequent laser microdissection, an alternative methodology was set up. To maximize cell yield and viability the following combination of enzymes was used: collagenase III (200 U/ml; Sigma-Aldrich), DNase I (200 U/ml; Sigma-Aldrich) and trypsin (5 mg/ml; Invitrogen), and a non-enzymatic dissociation buffer (NEDB, Invitrogen). Briefly, mice were killed, and tumors were removed (avoiding skin, muscle and fat) into cold culture media and processed immediately. The tumors were minced into 1-3 mm fragments, which were then incubated with the dissociation solution (see above) for 30 min at 37° C. The tumor fragments were mixed up and down every 10 min using a […] micropipette with a tip cut to a diameter adapted to tissue fragment size. After each incubation period, the fragments were filtered through a […] nylon mesh cell strainer (BD Biosciences, San Diego, Calif., USA). The released cells were centrifuged at 1200 r.p.m. for 2 min and stored in cold CO2-independent medium with 30% FCS at […]. Fresh dissociation solution was added to the remaining tissue fragments for 30 min. Dissociation was stopped when no additional cells were released. The fragments were pushed through a sieve and all cells from all incubation periods were pooled and counted.
The dissociated cells were layered onto a double Ficoll gradient (Histopaque; Sigma-Aldrich; densities 1.077 and 1.119) and spun at 700 g for 30 min at room temperature. Cells removed from both interfaces were pooled and washed two times in CO2-independent medium and stored at 4° C. Debris and red blood cell elimination was improved with the dual-density gradient. […]

[5] = system: human melanoma; assay: Effect of pterostilbene on human melanoma in vivo (growth, Ki-67, TUNEL, nuclear Nrf2)
Procedure: Animals, Tumor Growth, and In Vivo Administration of Pter.
Female nu/nu nude mice (6-8 weeks; Charles Rivers Laboratories, Wilmington, Mass.) were fed ad libitum on a standard diet (Harlan Teklad Animal Diets & Bedding, Madison, Wis.). Mice were kept on a 12-h-light/12-h-dark cycle with the room temperature at 22° C. […] For cancer xenograft experiments, mice were inoculated s.c. with 10×10^6 cancer cells per mouse. Tumor volume was calculated based on two dimensions, measured using calipers, and was expressed in mm^3 according to V=0.5a×b^2, where a and b are the long and the short diameters of the tumor, respectively. For histological analysis xenograft samples were first fixed in 4% formaldehyde, paraffin embedded, and stained as indicated below. Mice were monitored after inoculation, and tumor measurements were taken every 2 days. For pharmacokinetic and treatment studies Pterostilbene (Green Molecular S. L., Paterna, Spain) [dissolved in DMSO:ethanol (2:1), 50 mg Pter/ml] was administered i.v. through the jugular vein (where, previously, a permanent catheter was surgically fixed). Administration was slowly performed during 1-2 min.
Monoclonal mouse anti-human HMB45 antibodies (Abcam, Cambridge, UK) were used for immunohistochemical detection of melanoma cells. For that purpose, the tumors were fixed and paraffin embedded as described above. Immunohistochemical analysis was applied to tissue slices (5 μm thick) following the standard methodology recommended by Abcam. A horseradish peroxidase-conjugated goat anti-mouse polyclonal (Abcam) was used as secondary antibody.
Monoclonal mouse anti-human Ki-67 (Dako, Sant Cugat del Vallés, Spain) were used for immunohistochemical detection of the tumor growing fraction. Immunohistochemical analysis was applied to tissue slices (5 μm thick) following the standard methodology recommended by Dako. A biotin-conjugated goat anti-rabbit polyclonal (Dako) was used as secondary antibody.
DNA strand breaks in apoptotic cells were assayed by using a direct TUNEL labeling assay (Boehringer, Mannheim, Germany) and fluorescence microscopy following manufacturer's methodology.
Nrf2 Gene Transfer and Measurement.
The Tet-Off Advanced Inducible Gene Expression System (Clontech, Palo Alto, Calif.) was used to insert the human Nrf2 gene and for transfection into melanoma cells following manufacturer's instructions. Tet-off cells stably expressed Tet-regulated pTRE-Tight-Nrf2 giving up to an increased Nrf2 gene expression (Tet-Nrf2 cells). To suppress Nrf2 protein levels Tet-Nrf2 cells were cultured in the presence of 2 mg tetracycline (Sigma)/10^6 cells. The NE-PER extraction kit from Thermo Scientific (Rockford, Ill.) was used for nuclear protein extraction according to the manufacturer's instructions. The protein content was determined by the Pierce BCA protein assay. The antibodies (mouse monoclonal primary antibodies) against Nrf2 were purchased from Abcam. A total of 50 mg of protein was boiled in Laemmli buffer and resolved by 12.0% SDS-PAGE. Proteins were transferred to a nitrocellulose membrane (Hybond C-extra, GE Healthcare Europe GmbH, Barcelona, Spain) and subjected to Western blotting. The blotted membrane was blocked for 1 h at room temperature in Tris-buffered saline (TBS) containing 5% (w/v) membrane-blocking reagent (non-fat dried milk). All antibody incubations were carried out at room temperature in TBS containing 1% membrane-blocking reagent. […] Protein bands were quantified using laser densitometry.

[6] = system: corticosterone; assay: Plasma corticosterone levels (ELISA) in tumor-bearing mice; assay type: in vivo
Description: Measurement of ACTH, Corticosterone, and NORA Levels.
Plasma levels of ACTH (Calbiotech, Inc., Spring Valley, Calif.), corticosterone (Kamiyama Biomedical Co., Seattle, Wash.), and NORA (IBL, Hamburg, Germany) were quantified by ELISA according to the instructions of the suppliers.

[7] = tumors of Pter-treated melanoma-bearing mice

Question: For `COc1cc(/C=C/c2ccc(O)cc2)cc(OC)c1` [Pter, trans-3,5-dimethoxy-4′-hydroxystilbene], which Tumor vol. ([1]; MeWo-RFP, 35 days after inoculation, Pter 30 mg/kg i.v. every 48 h and/or CRC infusion 0.3 μg/h) is on record?
Answer: The Tumor vol. was 167 ± 53* mm^3.

Question: And the “inhibition of tumor growth” value ([1]; Mewo, day 42, 30 mg Pter/kg i.v. every 48 h, vs controls)?
Answer: The value was ~65%.

Question: What about the Tumor vol. [2] of the same compound?
Answer: Its Tumor vol. is 375 ± 106* mm^3.

Question: And the Tumor vol. [3]?
Answer: The Tumor vol. was 266 ± 89* mm^3.

Question: What about the CAT [4] of the same compound?
Answer: Its CAT is 1.9 ± 0.5 mU/10^6 cells.

Question: And the GCL [4]?
Answer: Its GCL is 45 ± 14 mU/10^6 cells.

Question: What about the GSH [4] of the same compound?
Answer: Its GSH is 3.7 ± 1.5 nmol/10^6 cells.

Question: What about the GSS [4] of the same compound?
Answer: The GSS was 4.0 ± 1.2 mU/10^6 cells.

Question: What about the GSSG [4] of the same compound?
Answer: The GSSG was 0.12 ± 0.05 nmol/10^6 cells.

Question: And the SOD1 [4]?
Answer: The SOD1 was 0.5 ± 0.1 U/10^6 cells.

Question: What about the SOD2 [4] of the same compound?
Answer: The SOD2 was 0.01 ± 0.005 U/10^6 cells.

Question: And the “melanoma growth inhibition at lower dose” value ([5]; 20 mg/kg vs 30 mg/kg)?
Answer: Its value is “less effective”.

Question: What about the “melanoma growth inhibition at higher dose” value ([5]; 40 mg/kg vs 30 mg/kg) of the same compound?
Answer: The value was “no further inhibition”.

Question: And the “nuclear Nrf2 in melanoma cells” value ([5]; in vivo Pter-treated vs control melanoma-bearing mice (FIG. 4C))?
Answer: The value was “decreased”.

Question: And the “apoptotic cell death in tumors (TUNEL)” value [5, 7]?
Answer: The value was “increase”.

Question: And the “melanoma cell proliferation in tumors (Ki-67 staining)” value [5, 7]?
Answer: Its value is “decrease”.

Question: What about the CRC ([6]; A549-bearing mice, day 35, 12 h circadian time) of the same compound?
Answer: Its CRC is 61 ± 17 ng/mL plasma.

Question: And the CRC ([6]; A2058-bearing mice, day 35, 12 h circadian time)?
Answer: Its CRC is 123 ± 29 ng/mL plasma.

Question: And the CRC ([6]; AsPC-1-bearing mice, day 28, 12 h circadian time)?
Answer: The CRC was 217 ± 33 ng/mL plasma.

Question: What about the CRC ([6]; B16-F1-bearing mice, day 15, 12 h circadian time) of the same compound?
Answer: The CRC was 187 ± 36 ng/mL plasma.

Question: What about the CRC ([6]; BxPC-3-bearing mice, day 35, 12 h circadian time) of the same compound?
Answer: The CRC was 88 ± 21 ng/mL plasma.

Question: What about the CRC ([6]; Caco-2-bearing mice, day 28, 12 h circadian time) of the same compound?
Answer: Its CRC is 106 ± 23 ng/mL plasma.

Question: And the CRC ([6]; HT-29-bearing mice, day 21, 12 h circadian time)?
Answer: The CRC was 126 ± 36 ng/mL plasma.

Question: And the CRC ([6]; HepG2-bearing mice, day 35, 12 h circadian time)?
Answer: Its CRC is 187 ± 50 ng/mL plasma.

Question: And the CRC ([6]; LNCaP-bearing mice, day 49, 12 h circadian time)?
Answer: The CRC was 77 ± 15 ng/mL plasma.

Question: What about the CRC ([6]; MCF-7-bearing mice, day 28, 12 h circadian time) of the same compound?
Answer: The CRC was 75 ± 20 ng/mL plasma.

Question: What about the CRC ([6]; MDA-MB-231-bearing mice, day 35, 12 h circadian time) of the same compound?
Answer: Its CRC is 84 ± 24 ng/mL plasma.

Question: And the CRC ([6]; MeWo-bearing mice, day 35, 12 h circadian time)?
Answer: Its CRC is 87 ± 17 ng/mL plasma.

Question: What about the CRC ([6]; MelJuso-bearing mice, day 35, 12 h circadian time) of the same compound?
Answer: The CRC was 80 ± 15 ng/mL plasma.

Question: And the CRC ([6]; PC-3-bearing mice, day 21, 12 h circadian time)?
Answer: Its CRC is 145 ± 30 ng/mL plasma.

Question: What about the CRC ([6]; SK-OV-3-bearing mice, day 49, 12 h circadian time) of the same compound?
Answer: Its CRC is 64 ± 18 ng/mL plasma.

Question: What about the corticosterone in plasma ([6]; melanoma-bearing mice, pterostilbene 30 mg/kg every 48 h (FIG. 2A)) of the same compound?
Answer: Its corticosterone in plasma is “to practically control values”.
